In ChEMBL document CHEMBL5291721, “A preclinical secondary pharmacology resource illuminates target-adverse drug reaction associations of marketed drugs” (Nat Commun, 2023):

Columns and labels:
Progesterone receptor = target: T1, Progesterone receptor (Homo sapiens, UniProt P06401); type: functional
T1 sequence (P06401 whole entry): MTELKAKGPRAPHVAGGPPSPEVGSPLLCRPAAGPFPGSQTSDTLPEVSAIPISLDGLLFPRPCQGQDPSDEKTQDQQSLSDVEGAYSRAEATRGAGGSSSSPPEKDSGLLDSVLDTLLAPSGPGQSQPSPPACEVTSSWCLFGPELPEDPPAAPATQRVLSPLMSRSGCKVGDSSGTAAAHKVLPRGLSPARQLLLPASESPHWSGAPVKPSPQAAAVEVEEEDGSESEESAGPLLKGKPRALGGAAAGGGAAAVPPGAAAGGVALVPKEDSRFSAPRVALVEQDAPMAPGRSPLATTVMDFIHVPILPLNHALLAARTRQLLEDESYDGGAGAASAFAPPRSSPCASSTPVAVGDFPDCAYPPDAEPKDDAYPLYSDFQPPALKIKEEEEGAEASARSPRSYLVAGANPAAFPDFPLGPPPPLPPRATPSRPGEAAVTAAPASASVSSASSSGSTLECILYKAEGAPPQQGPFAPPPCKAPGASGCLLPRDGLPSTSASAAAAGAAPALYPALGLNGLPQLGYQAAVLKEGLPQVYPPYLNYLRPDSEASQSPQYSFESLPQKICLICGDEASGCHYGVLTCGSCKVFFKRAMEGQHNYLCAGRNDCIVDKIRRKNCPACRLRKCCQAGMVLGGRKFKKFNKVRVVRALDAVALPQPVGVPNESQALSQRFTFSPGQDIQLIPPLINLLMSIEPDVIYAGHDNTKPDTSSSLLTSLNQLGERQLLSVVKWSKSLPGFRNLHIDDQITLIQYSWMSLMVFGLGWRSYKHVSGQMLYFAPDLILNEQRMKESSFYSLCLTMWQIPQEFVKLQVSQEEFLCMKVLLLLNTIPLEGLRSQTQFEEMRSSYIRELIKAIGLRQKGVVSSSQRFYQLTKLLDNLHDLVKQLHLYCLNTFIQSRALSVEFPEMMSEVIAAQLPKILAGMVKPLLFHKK

[1] = target: Glutamate receptor ionotropic, NMDA 1 (Rattus norvegicus, UniProt P35439)
[2] = target: Beta-1 adrenergic receptor (Homo sapiens, UniProt P08588); type: functional
[3] = target: T2, 5-hydroxytryptamine receptor 2C (Homo sapiens, UniProt P28335)
T2 sequence (P28335 whole entry): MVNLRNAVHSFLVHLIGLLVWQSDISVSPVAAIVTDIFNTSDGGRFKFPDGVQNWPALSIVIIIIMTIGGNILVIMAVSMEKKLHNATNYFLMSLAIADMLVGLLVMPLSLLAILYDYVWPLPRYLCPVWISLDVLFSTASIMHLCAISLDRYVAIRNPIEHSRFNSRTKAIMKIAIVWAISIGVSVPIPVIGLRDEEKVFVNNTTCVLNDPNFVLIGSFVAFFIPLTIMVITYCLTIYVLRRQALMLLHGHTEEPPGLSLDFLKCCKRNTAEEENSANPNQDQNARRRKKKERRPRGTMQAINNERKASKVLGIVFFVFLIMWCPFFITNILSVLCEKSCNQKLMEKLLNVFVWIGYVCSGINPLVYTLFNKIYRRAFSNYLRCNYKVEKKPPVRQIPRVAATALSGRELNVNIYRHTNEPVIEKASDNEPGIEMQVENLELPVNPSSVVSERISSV

[4] = target: Gamma-aminobutyric acid receptor subunit alpha-1 (Rattus norvegicus, UniProt P62813); type: functional
[5] = target: T3, Alpha-1A adrenergic receptor (Homo sapiens, UniProt P35348); type: functional, cell-based
T3 sequence (P35348 whole entry): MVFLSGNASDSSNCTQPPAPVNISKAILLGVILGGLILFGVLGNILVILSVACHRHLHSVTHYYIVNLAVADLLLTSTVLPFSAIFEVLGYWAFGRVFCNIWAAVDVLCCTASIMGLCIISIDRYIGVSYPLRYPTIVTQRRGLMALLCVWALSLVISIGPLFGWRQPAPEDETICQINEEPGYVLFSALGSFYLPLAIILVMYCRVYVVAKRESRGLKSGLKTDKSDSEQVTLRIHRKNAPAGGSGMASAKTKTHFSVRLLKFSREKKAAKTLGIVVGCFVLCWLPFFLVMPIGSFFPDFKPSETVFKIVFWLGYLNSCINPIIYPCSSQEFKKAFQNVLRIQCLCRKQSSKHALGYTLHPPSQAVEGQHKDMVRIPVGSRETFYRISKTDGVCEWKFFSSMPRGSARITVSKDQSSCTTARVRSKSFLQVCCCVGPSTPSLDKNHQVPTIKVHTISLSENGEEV

Thromboxane A2 receptor = target: T4, Thromboxane A2 receptor (Homo sapiens, UniProt P21731)
T4 sequence (P21731 whole entry): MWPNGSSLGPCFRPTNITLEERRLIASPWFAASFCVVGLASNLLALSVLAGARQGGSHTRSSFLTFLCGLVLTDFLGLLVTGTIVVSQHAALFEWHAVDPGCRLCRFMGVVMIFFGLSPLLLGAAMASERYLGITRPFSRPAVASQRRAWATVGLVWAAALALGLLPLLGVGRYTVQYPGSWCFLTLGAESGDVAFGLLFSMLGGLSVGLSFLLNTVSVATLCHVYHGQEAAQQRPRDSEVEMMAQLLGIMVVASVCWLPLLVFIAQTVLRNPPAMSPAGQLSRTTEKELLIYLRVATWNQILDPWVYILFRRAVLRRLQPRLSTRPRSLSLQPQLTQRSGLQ

D(1A) dopamine receptor = D(1A) dopamine receptor (Homo sapiens, UniProt P21728); type: functional, cell-based
[6] = target: T5, Alpha-2A adrenergic receptor (Homo sapiens, UniProt P08913); type: functional, cell-based
T5 sequence (P08913 whole entry): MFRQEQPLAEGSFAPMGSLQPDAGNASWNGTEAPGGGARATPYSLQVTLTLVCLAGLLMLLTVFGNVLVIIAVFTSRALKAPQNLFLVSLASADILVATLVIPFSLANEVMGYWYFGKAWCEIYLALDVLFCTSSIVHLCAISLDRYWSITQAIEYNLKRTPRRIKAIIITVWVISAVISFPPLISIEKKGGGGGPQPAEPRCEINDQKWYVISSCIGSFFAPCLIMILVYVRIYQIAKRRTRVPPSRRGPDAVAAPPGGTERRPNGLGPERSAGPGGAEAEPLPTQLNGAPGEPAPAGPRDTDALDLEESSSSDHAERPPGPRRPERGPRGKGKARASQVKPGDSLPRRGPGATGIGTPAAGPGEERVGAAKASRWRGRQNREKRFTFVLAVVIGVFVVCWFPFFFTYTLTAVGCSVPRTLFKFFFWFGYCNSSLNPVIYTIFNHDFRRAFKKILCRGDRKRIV

[7] = target: Sodium-dependent noradrenaline transporter (Homo sapiens, UniProt P23975)
Further: assay procedure not described here.

Chain of Gamma-aminobutyric acid receptor subunit alpha-1 (P62813 whole entry): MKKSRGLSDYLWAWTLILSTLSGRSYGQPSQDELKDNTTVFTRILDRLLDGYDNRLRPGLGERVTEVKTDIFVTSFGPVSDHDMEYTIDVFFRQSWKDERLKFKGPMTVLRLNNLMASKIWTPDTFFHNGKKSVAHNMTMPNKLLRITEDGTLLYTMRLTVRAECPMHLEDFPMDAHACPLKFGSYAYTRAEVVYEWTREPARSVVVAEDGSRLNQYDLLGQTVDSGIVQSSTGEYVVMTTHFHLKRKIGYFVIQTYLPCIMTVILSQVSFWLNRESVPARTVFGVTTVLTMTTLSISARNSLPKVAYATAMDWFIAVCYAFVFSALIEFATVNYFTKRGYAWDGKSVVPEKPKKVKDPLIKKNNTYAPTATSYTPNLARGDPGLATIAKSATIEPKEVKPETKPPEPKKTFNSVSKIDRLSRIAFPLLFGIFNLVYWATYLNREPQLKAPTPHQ
Chain of Sodium-dependent noradrenaline transporter (P23975 whole entry): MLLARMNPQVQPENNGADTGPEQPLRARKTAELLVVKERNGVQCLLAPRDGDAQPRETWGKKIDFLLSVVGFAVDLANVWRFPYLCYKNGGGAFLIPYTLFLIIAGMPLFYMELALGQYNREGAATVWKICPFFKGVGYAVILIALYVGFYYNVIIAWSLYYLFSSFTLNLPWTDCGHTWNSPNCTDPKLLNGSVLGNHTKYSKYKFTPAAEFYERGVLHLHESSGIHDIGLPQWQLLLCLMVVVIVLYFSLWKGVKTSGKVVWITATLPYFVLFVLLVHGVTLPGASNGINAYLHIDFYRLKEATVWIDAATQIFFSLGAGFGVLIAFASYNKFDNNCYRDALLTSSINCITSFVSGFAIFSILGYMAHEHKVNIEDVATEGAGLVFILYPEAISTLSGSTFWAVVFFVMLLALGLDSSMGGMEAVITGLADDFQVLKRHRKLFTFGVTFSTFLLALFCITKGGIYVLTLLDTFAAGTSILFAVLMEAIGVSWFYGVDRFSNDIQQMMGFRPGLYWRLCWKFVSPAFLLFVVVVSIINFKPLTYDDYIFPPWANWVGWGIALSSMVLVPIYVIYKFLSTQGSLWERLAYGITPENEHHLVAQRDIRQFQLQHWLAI
Chain of Beta-1 adrenergic receptor (P08588 whole entry): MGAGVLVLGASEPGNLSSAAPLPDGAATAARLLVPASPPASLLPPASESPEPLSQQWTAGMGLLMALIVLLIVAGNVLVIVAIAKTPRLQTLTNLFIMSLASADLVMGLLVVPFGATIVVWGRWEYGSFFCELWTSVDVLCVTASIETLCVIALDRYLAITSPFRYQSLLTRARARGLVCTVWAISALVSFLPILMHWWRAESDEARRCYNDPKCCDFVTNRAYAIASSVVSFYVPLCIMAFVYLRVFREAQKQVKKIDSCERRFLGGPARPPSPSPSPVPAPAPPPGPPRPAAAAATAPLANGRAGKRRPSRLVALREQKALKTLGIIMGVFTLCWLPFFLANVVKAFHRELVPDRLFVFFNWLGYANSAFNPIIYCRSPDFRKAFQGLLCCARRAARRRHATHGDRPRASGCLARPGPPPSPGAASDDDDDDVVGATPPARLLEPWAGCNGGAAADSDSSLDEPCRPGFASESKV
Chain of D(1A) dopamine receptor (P21728 whole entry): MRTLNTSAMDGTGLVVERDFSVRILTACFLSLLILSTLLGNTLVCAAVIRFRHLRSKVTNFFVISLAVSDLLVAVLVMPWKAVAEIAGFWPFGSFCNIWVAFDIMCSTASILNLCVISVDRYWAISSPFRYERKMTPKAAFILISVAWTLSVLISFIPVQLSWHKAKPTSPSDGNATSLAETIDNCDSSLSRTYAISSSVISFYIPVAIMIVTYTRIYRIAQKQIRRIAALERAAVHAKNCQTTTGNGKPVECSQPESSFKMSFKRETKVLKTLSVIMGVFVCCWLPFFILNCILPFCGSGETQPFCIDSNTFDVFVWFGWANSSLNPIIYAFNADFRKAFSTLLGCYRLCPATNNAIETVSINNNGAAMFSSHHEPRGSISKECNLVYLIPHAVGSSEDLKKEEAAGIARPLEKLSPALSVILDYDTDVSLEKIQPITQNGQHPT

Structure (SMILES) | AC50 (Progesterone receptor) | AC50 [1] | AC50 [2] | AC50 [3] | AC50 [4] | AC50 [5] | AC50 (Thromboxane A2 receptor) | AC50 (D(1A) dopamine receptor) | AC50 [6] | AC50 [7]
COc1nc(C)nc(Cl)c1N=C1NCCN1 [MOXONIDINE] | > 30 µM | > 30 µM | > 30 µM | > 30 µM | > 30 µM | 0.09 µM | > 30 µM | > 30 µM |  | 
CN1CCCN=C1/C=C/c1cccc(O)c1 [OXANTEL] | > 30 µM | > 30 µM | > 30 µM | > 30 µM | > 30 µM | > 30 µM | > 30 µM | > 30 µM | > 30 µM | 
CCOC(=O)O[C@]1(C(=O)COC(=O)CC)CC[C@H]2[C@@H]3CCC4=CC(=O)C=C[C@]4(C)[C@H]3[C@@H](O)C[C@@]21C [PREDNICARBATE] | 1.3 µM | > 10 µM | > 10 µM | > 30 µM | > 10 µM |  | > 10 µM | > 10 µM | > 10 µM | > 10 µM
CCC(=O)[C@@]1(C)[C@H](C)C[C@H]2[C@@H]3CCC4=CC(=O)C=C[C@]4(C)[C@H]3[C@@H](O)C[C@@]21C [RIMEXOLONE] | 0.0032 µM | > 10 µM | > 10 µM | > 30 µM | > 10 µM |  | > 10 µM | > 10 µM | > 10 µM | > 10 µM
Nc1ccc(S(=O)(=O)Nc2ncccn2)cc1 [SULFADIAZINE] | > 10 µM | > 10 µM | > 10 µM | > 30 µM | > 10 µM |  | > 10 µM | > 10 µM | > 10 µM | > 10 µM
CCCCOC(=O)C(=O)Nc1cccc(-c2nnn[nH]2)c1 [TAZANOLAST] | > 30 µM | > 30 µM | > 30 µM |  | > 30 µM | > 30 µM | > 30 µM | > 30 µM | > 30 µM | > 30 µM
Cc1cccc(Nc2ccncc2S(=O)(=O)NC(=O)NC(C)C)c1 [TORSEMIDE] | > 10 µM | > 10 µM | > 10 µM | > 30 µM | > 10 µM |  | 20.8 µM | > 10 µM | > 10 µM | > 10 µM
CCCCC[C@H](O)CC[C@@H]1[C@H]2Cc3cccc(OCC(=O)O)c3C[C@H]2C[C@H]1O [TREPROSTINIL] | > 30 µM | > 30 µM | > 30 µM |  | > 30 µM | > 30 µM | > 30 µM | > 30 µM | > 30 µM | > 30 µM
CCN(C(C)=O)c1cccc(-c2ccnc3c(C#N)cnn23)c1 [ZALEPLON] | > 30 µM | > 10 µM | > 30 µM | > 30 µM |  | > 30 µM | > 30 µM | > 10 µM | > 10 µM | > 30 µM
